Patent publication EP4696689A1, “SALT FORM AND CRYSTAL FORM OF CHIRAL HETEROCYCLIC COMPOUND HAVING HEDGEHOG PATHWAY ANTAGONIST ACTIVITY” (Suzhou Kintor Pharmaceuticals, Inc., priority 2023, dated 2024)

Assays:
[1] = rats, P.O., 10 mg/kg; data from WO2018006756A1 (B1); cited from earlier work
[2] = hygroscopicity evaluation by dynamic vapor sorption (DVS); format: physicochemical
Method: The DVS curves were collected on a DVS Intrinsic from SMS (Surface Measurement Systems).The relative humidity at 25°C was corrected with the deliquescence points of LiCl, Mg (NO3)2 and KCl.

[3] = dynamic solubility in water and three biological solvents; format: physicochemical; details: 37 °C, thermodynamic from solid
Method: Finally, the volume is fixed with purified water.
(§1) 0.17 g of sodium dihydrogen phosphate (NaH2PO4, anhydrous), 0.021 g of sodium hydroxide and 0.31 g of sodium chloride were weighed into a 50 mL volumetric flask respectively, about 48 mL of purified water was added for dissolution, the pH was adjusted to exactly 6.5 with 1M hydrochloric acid or 1M sodium hydroxide, and the volume was fixed with purified water. 0.11 g of SIF powder was then added, stirred and sonicated to completely dissolve the powder. The solution can be used only after being placed at room temperature for two hours to reach equilibrium.
as §1, with “0.41 mL” for “0.17 g”, “glacial acetic acid, 0.20” for “sodium dihydrogen phosphate (NaH2PO4, anhydrous), 0.021”, “0.59” for “0.31”, “respectively, and” for “respectively,”, “5.0” for “6.5”, “0.56” for “0.11”
The solubility results of the two samples in SGF, FASSIT and FeSSIF are similar. […] Table 4-1 Summary of the dynamic solubility test results

[4] = solid state stability (XRPD, HPLC, chiral purity); format: physicochemical
Method: The purity test, the dynamic solubility and the stability test are tested by the Agilent 1260/1100 high performance liquid chromatograph, and the analysis conditions and chiral purity test analysis conditions of the high performance liquid chromatography test are respectively as follows.
After placing the amorphous free base and fumarate crystal form F of the compound of formula (I) at 25°C/60% RH and 40°C/75% RH for 1 week, the physical and chemical stability of the sample is detected by XRPD and HPLC (at the same time the chiral purity of the sample is tested). […] Table 4-2 Solid Stability Evaluation Summary

[5] = body weight of tumor-bearing mice during treatment
Description: (§2) 30 mice with uniform tumor sizes (Coefficient of Variation, CV < 30%, CV = Standard Deviation / Mean) were selected from this group. These mice were selected and randomly divided into five experimental groups according to Table 6-2, with six mice in each group and one group per cage. Drug administration began the day after grouping and lasted for 17 days with a frequency of twice daily (BID). The drug was discontinued after 17 days to observe tumor changes.
(§3) During routine examinations, animals were monitored for tumor growth, activity level, food intake, water consumption, weight gain or loss, eye, fur, and any other abnormal behaviors. Animal deaths and clinical abnormalities were recorded. Tumor volume (TV) was measured twice weekly using calipers and calculated using the formula: TV = 0.5a × b^2, wherein a is the longest diameter of the tumor and b is the shortest diameter. Body weight was recorded twice weekly, concurrently with tumor volume measurements.
(§4) If the animals' weight subsequently recovered to within a 10% loss compared to baseline, whether to continue the administration was based on the animals' condition. The in vivo experimental for an individual animal or the entire group would be terminated under the following conditions. The animals will be euthanized before death or coma. • ➢ If the animals' health condition deteriorated continuously, causing persistent suffering and is unable to eat or drink. • ➢ If the animal became emaciated, with a body weight loss exceeding 20% compared to the initial administration. • ➢ If the tumor volume of an individual mouse exceeded 3000 mm^3 or the mean tumor volume of the entire group exceeded 2000 mm^3.

[6] = system: primary extracted medulloblastoma cells; assay: antitumor efficacy against medulloblastoma, subcutaneous xenograft model;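 also: male CB-17/SCID mice bearing subcutaneous tumors, randomized at 150-300 mm^3, tumor volume from caliper diameters as 0.5 × longest × shortest squared, measured twice weekly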; format: in vivo, CB-17/SCID mice; details: 10 mg/kg i.g. BID, 17 days
Method: 60 male CB-17/SCID mice (aged 6-8 weeks) were purchased from Shanghai SLAC Laboratory Animal Co., Ltd. Animals were housed in individually ventilated cages (IVCs), with five mice per cage. Housing conditions were as follows: temperature was maintained at 20-26°C; humidity was 30-70%; 12 hours of light and 12 hours of darkness.
as §2, §3, §4
All data were analyzed using GraphPad Prism 5.0. P value < 0.05 was considered statistically significant.

[7] = SCID tumor-bearing mice, i.g. BID × 3 days
Method: During routine examinations, animals were monitored for tumor growth, activity level, food intake, water consumption, weight gain or loss, eye, fur, and any other abnormal behaviors. Animal deaths and clinical abnormalities were recorded.

in vivo = details: male, C57, mouse, plasma, po, 10 mg/kg
Method: The collected plasma samples were subjected to a protein precipitation method by using an organic reagent according to the following method to extract test article in the plasma, and the extracted sample was subjected to quantitative concentration analysis through the LC-MS/MS.
Meanwhile, an accompanying standard curve and quality control samples were prepared for quantitative analysis.
The fumarate salt form F of the compound of formula (I) Group: 50 µL of plasma at each time point was taken, 400 µL of acetonitrile was added, vortex mixing and centrifugation was performed at 10000 rpm for 10 min, and a 200 µL supernatant for LC-MS/MS analysis was taken. Meanwhile, an accompanying standard curve and quality control samples were prepared for quantitative analysis.
According to the plasma drug concentration data obtained through analysis, the main pharmacokinetic parameters were calculated according to the non-atrioventricular model by using Kinetic software (Version 5.0).

Gli1 Gene = assay: Gli1 mRNA expression in tumor tissues (RT-qPCR), Shh signaling pathway analysis; format: in vivo, CB-17/SCID mice; details: 10 mg/kg i.g. BID × 3 days; tumor tissue 2 hours after last administration; GAPDH internal reference
Description: Table 7-1 The Grouping and Drug Administration Plan
Primary tumor cells were extracted from Math1-Cre/Ptch1 ^C/C mice with spontaneous medulloblastoma and subcutaneously inoculated into CB-17/SCID mice to establish a xenograft model of medulloblastoma.
CB-17/SCID mice were subcutaneously injected with primary extracted medulloblastoma cells. After 3-4 weeks, a subset of mice developed tumors with volumes ranging from 150 to 300 mm^3.
From these mice, 25 tumor-bearing mice with uniform tumor sizes (with CV < 30%, CV = SD/Mean) were selected and randomly divided into 5 experimental groups (Vehicle, GDC-0449-10 mg/kg, Compound A-10 mg/kg, Compound A-3 mg/kg, Compound A-1 mg/kg) according to Table 2. Each group consisted of 5 mice per cage. Administration began on the day after grouping. The administration period was 3 days, with a frequency of BID. Tumor tissues were collected 2 hours after the last administration, and the mRNA expression level of the Glil gene in the tumor tissues was analyzed by RT-qPCR.
The tumor tissues were lysed by RNAiso Plius (TaKaRa, 108-95-2) to extractand RNA was then extracted using chloroform extraction and isopropanol precipitation methods. Subsequently, the mRNA level of the Glil gene was detected using a real-time fluorescence quantitative PCR instrument (ABI 7500), with GAPDH serving as the internal reference for quantitative analysis.
Experimental data in all tables are presented as "mean ± standard deviation" with error bars in figures representing standard error of the mean (SEM). Student's t-test was used to compare statistical differences in Glil gene mRNA expression levels in tumor tissues among treatment groups. All data were analyzed using GraphPad Prism 5.0. P-value <0.05 was considered statistically significant. ***, P<0.001; ##, P<0.01.
Glil is a target gene of the Hedgehog signaling pathway, and its mRNA expression level reflects the activation status of the hedgehog signaling pathway.

[8] = pH 1.8, simulated gastric fluid

Cc1cnc(-c2cc(N3CCc4nc(N5CCC(O)CC5)ncc4[C@H]3C)ncc2Cl)c(C)c1 [compound of formula (I), (R)-1-(6-(5'-chloro-3,5-dimethyl-[2,4'-bipyridin]-2'-yl)-5-methyl-5,6,7,8-tetrahydropyrido[4,3-d]pyrimidin-2-yl)piperidin-4-ol]
F% [1]: 100%
crystal transformation or crystal form change after the DVS test (XRPD) ([2]; 0% RH-95% RH-0% RH, 25°C): no crystal transformation or crystal form change
Water adsorption (25°C/80%RH) ([2]; 25°C/80%RH): 2.4
moisture adsorption ([2]; 25°C/80%RH): 2.4%
solubility at 1 h [3, 8]: 4100 µg/mL
solubility at 2 h [3, 8]: 3900 µg/mL
solubility at 4 h [3, 8]: 4000 µg/mL
solubility at 24 h [3, 8]: 3900 µg/mL
solubility at 1 h ([3]; pH 5, fessif): 3000 µg/mL
solubility at 2 h ([3]; pH 5, fessif): 3000 µg/mL
solubility at 4 h ([3]; pH 5, fessif): 2900 µg/mL
solubility at 24 h ([3]; pH 5, fessif): 2900 µg/mL
solubility at 1 h ([3]; pH 6.5, fassif): 210 µg/mL
solubility at 2 h ([3]; pH 6.5, fassif): 200 µg/mL
solubility at 4 h ([3]; pH 6.5, fassif): 240 µg/mL
solubility at 24 h ([3]; pH 6.5, fassif): 220 µg/mL
solubility at 1 h ([3]; water): 13 µg/mL
solubility at 2 h ([3]; water): 16 µg/mL
solubility at 4 h ([3]; water): 18 µg/mL
solubility at 24 h ([3]; water): 30 µg/mL
Chiral purity (%) ([4]; 25°C/60%RH_1w): 98.7%
Purity (Area%) ([4]; 25°C/60%RH_1w): 99.0 Area%
Purity/Initial purity (%) ([4]; 25°C/60%RH_1w): 100.0%
Chiral purity (%) ([4]; 40°C/75%RH_1w): 98.7%
Purity (Area%) ([4]; 40°C/75%RH_1w): 98.9 Area%
Purity/Initial purity (%) ([4]; 40°C/75%RH_1w): 99.9%
Chiral purity (%) ([4]; Start): 98.5%
Purity (Area%) ([4]; Start): 99.0 Area%
Solid State Stability ([4]; summary, 25°C/60% RH and 40°C/75% RH for 1 week): good physical and chemical stability

CS(=O)(=O)c1ccc(C(=O)Nc2ccc(Cl)c(-c3ccccn3)c2)c(Cl)c1 [GDC-0449, reference compound]
Mean Body Weight at Day 0 ([5]; 10 mg/kg group, before treatment): 23.7 ± 2.1 g
Body Weight Change Rate (%) ([5]; 10 mg/kg i.g. BID, 17 days): 9.3%
Mean Body Weight at Dosing Endpoint ([5]; 10 mg/kg i.g. BID, 17 days): 25.9 ± 2.0 g
impact on the body weight of tumor-bearing mice during the treatment period ([5]; administered doses, i.g. BID × 17 days): no significant impact
T/C (%) [6]: 32.49%
TGI (%) ([6]; TGI = [1 - RTV(treatment group) / RTV(control group)] × 100%): 67.51%
abnormal behaviors or animal deaths during the administration period [7]: no abnormal behaviors or animal deaths
AUC(0-inf) (in vivo): 6650 ng·h/mL
AUC(0-t) (in vivo): 6040 ng·h/mL
Cmax (in vivo): 1270 ng/mL
MRT (in vivo): 8.33 h
Tmax (in vivo): 0.63 h
half-life (in vivo): 8.43 h
mRNA Expression Level of Glil Gene (Gli1 Gene): 0.194 ± 0.074
